Source: patent US6627611B2, “C-glycosides and preparation of thereof as antidiabetic agents” (Kotobuki Pharmaceutical Co Ltd, priority 2000, dated 2003)

Experiments:
male SD rats = test: Measurement of urinary glucose excretion in rats; format: in vivo, rat; details: 10 mg/kg i.p. administered twice at an 8 hr interval, urine collected for 24 hr after first administration
Method: The pharmacological test of urinary glucose excretion in rat is described that follow.
Measurement of Urinary Glucose Excretion in Rats
20 mg of test compounds were dissolved in 10 mL saline containing 20% dimethylsulufoxide.
Test compound (10 mg/5 mL/kg, i.p.) was administered twice an 8 hr interval to male SD rats (6 weeks old, 3 animals/group). An equal volume of vehicle was given to the control group. Urine was collected for 24 hr after first administration in metabolic cages.
The urine was centrifuged and urine volume was measured. Glucose concentration (mg/dl) was assayed using Glucose CII test Wako (Wako Pure Chemicals, Japan). The amounts of glucose excretion during 24 hr was calculated from the following equation.
Glucose secretion (mg/24 hr)=(A×B)/100
(A; the urine volume, B; the glucose concentration)

| Compound | Urinary glucose excretion (mg/24 hr) (male SD rats) | melting point |
| --- | --- | --- |
| COc1cc(O)c(C(=O)/C=C/c2ccc3occc3c2)c(CC2OC(CO)C(O)C(O)C2O)c1 [Compound 1, 3-(Benzo[b]furan-5-yl)-1-(2′-β-D-glucopyranosylmethyl-6′-hydroxy-4′-methoxy)acrylophenone] | 4.1 mg/24 hr | 135 to 136 °C |
| COc1cc(OC)c(C2OC(CO)C(O)C(O)C2O)cc1C(=O)/C=C/c1ccc2occc2c1 (stereo not shown) [Compound 2] |  | 226 to 228 °C |
| COc1cc(O)c(C(=O)/C=C/c2ccc3occc3c2)cc1[C@@H]1O[C@H](CO)[C@@H](O)[C@H](O)[C@H]1O [Compound 3, 3-(Benzo[b]furan-5-yl)-3′-β-D-glucopyranosyl-6′-hydroxy-4′-methoxyacrylophenone] | 241 mg/24 hr | > 250 °C |
| COC(=O)OC[C@H]1O[C@@H](c2cc(C(=O)/C=C/c3ccc4occc4c3)c(O)cc2OC)[C@H](O)[C@@H](O)[C@@H]1O [Compound 4, 3-(Benzo[b]furan-5-yl)-3′-(6-O-methoxycarbonyl-β-D-glucopyranosyl)-6′-hydroxy-4′-methoxy-acrylophenone] | 289 mg/24 hr | 195 to 196 °C |
| COC(=O)OCC1OC(c2cc(C(=O)CCc3ccc4occc4c3)c(O)cc2OC)C(O)C(O)C1O [Compound 5, 3-(Benzo[b]furan-5-yl)-3′-(6-O-methoxycarbonyl-β-D-glucopyranosyl)-6′-hydroxy-4′-methoxy-propiopenone] | 228 mg/24 hr | 120 to 121 °C |
| CCOc1cc(OCC)c(C2OC(CO)C(O)C(O)C2O)cc1C(=O)/C=C/c1ccc2occc2c1 (stereo not shown) [Compound 6] | 8.9 mg/24 hr | 120 to 121 °C |
| CCOc1cc(O)c(C(=O)/C=C/c2ccc3occc3c2)cc1C1OC(CO)C(O)C(O)C1O (stereo not shown) [Compound 7] |  | 189 to 190 °C |
| Cc1cc(O)c(C(=O)/C=C/c2ccc3occc3c2)cc1C1OC(CO)C(O)C(O)C1O (stereo not shown) [Compound 8] |  | 228 to 229 °C |
| COc1cc(C)c(C(=O)/C=C/c2ccc3occc3c2)cc1C1OC(CO)C(O)C(O)C1O (stereo not shown) [Compound 9] |  | 137 to 138 °C |
| COc1cc(O)c(C(=O)/C=C/c2ccc(C)cc2)cc1C1OC(CO)C(O)C(O)C1O (stereo not shown) [Compound 10] |  | 181 to 183 °C |
| COc1cc(O)c(C(=O)/C=C/c2ccsc2)cc1C1OC(CO)C(O)C(O)C1O (stereo not shown) [Compound 11] |  | 239 to 242 °C |
| COc1cc(O)c(C(=O)/C=C/c2ccncc2)cc1C1OC(CO)C(O)C(O)C1O (stereo not shown) [Compound 12] |  | 183 to 185 °C |
| COc1cc(O)c(C(=O)/C=C/c2ccc3ccccc3c2)cc1C1OC(CO)C(O)C(O)C1O (stereo not shown) [Compound 13] |  | 236 to 239 °C |
| COc1cc(O)c(C(=O)/C=C/c2ccnc3ccccc23)cc1C1OC(CO)C(O)C(O)C1O (stereo not shown) [Compound 14] |  | 226 to 228 °C |
| COc1cc(O)c(C(=O)/C=C/c2ccc3c(c2)CCC3)cc1C1OC(CO)C(O)C(O)C1O (stereo not shown) [Compound 15] |  | 245 to 248 °C |
| COc1cc(O)c(C(=O)/C=C/c2ccc3occc3c2)c(OC)c1C1OC(CO)C(O)C(O)C1O (stereo not shown) [Compound 16] |  | 198 to 199 °C |
| COc1cc(O)c(C(=O)/C=C/c2ccc3[nH]ccc3c2)cc1C1OC(CO)C(O)C(O)C1O (stereo not shown) [Compound 17] |  | 194 to 196 °C |
| COc1cc(O)c(C(=O)/C=C/c2ccc3sccc3c2)cc1C1OC(CO)C(O)C(O)C1O (stereo not shown) [Compound 18] |  | 217 to 220 °C |
| COc1cc(O)c(C(=O)/C=C/c2ccc3c(c2)CCO3)cc1C1OC(CO)C(O)C(O)C1O (stereo not shown) [Compound 19] |  | 276 to 279 °C |
| COc1cc(O)c(C(=O)/C=C/c2cc3ccccc3o2)cc1C1OC(CO)C(O)C(O)C1O (stereo not shown) [Compound 20] |  | 256 to 257 °C |
| COc1cc(O)c(C(=O)CCc2ccc3occc3c2)c(C[C@@H]2O[C@H](CO)[C@@H](O)[C@H](O)[C@H]2O)c1 [Compound 21, 3-(Benzo[b]furan-5-yl)-2′-β-D-glucopyranosylmethyl-6′-hydroxy-4′-methoxypropiophenone] |  | 103 to 105 °C |
| COc1cc(O)c(C(=O)CCc2ccc3occc3c2)cc1C1OC(CO)C(O)C(O)C1O (stereo not shown) [Compound 22] | 124 mg/24 hr | 226 to 228 °C |

| Compound | Urinary glucose excretion (mg/24 hr) (male SD rats) | melting point |
| --- | --- | --- |
| COc1cc(OC)c(C2OC(CO)C(O)C(O)C2O)cc1C(=O)CCc1ccc2occc2c1 (stereo not shown) [Compound 23] |  | 112 to 113 °C |
| CCOc1cc(OCC)c(C2OC(CO)C(O)C(O)C2O)cc1C(=O)CCc1ccc2occc2c1 (stereo not shown) [Compound 24] |  | 89 to 90 °C |
| CCOc1cc(O)c(C(=O)CCc2ccc3occc3c2)cc1C1OC(CO)C(O)C(O)C1O (stereo not shown) [Compound 25] |  | 175 to 176 °C |
| Cc1cc(O)c(C(=O)CCc2ccc3occc3c2)cc1C1OC(CO)C(O)C(O)C1O (stereo not shown) [Compound 26] |  | 191 to 192 °C |
| COc1cc(C)c(C(=O)CCc2ccc3occc3c2)cc1C1OC(CO)C(O)C(O)C1O (stereo not shown) [Compound 27] |  | 118 to 119 °C |
| COc1cc(O)c(C(=O)CCc2ccc3c(c2)CCC3)cc1C1OC(CO)C(O)C(O)C1O (stereo not shown) [Compound 28] |  | 194 to 196 °C |
| COc1cc(O)c(C(=O)CCc2ccc3occc3c2)c(OC)c1C1OC(CO)C(O)C(O)C1O (stereo not shown) [Compound 29] |  | 131 to 132 °C |
| COc1cc(O)c(C(=O)CCc2ccc3[nH]ccc3c2)cc1C1OC(CO)C(O)C(O)C1O (stereo not shown) [Compound 30] |  | 66 to 71 °C |
| COc1cc(O)c(C(=O)CCc2cc3ccccc3o2)cc1C1OC(CO)C(O)C(O)C1O (stereo not shown) [Compound 31] |  | 216 to 217 °C |
| COc1cc(O)c(C(=O)/C=C/c2ccc3occc3c2)cc1C1OC(COC(=O)CCC(=O)O)C(O)C(O)C1O (stereo not shown) [Compound 42] |  | 71 to 73 °C |
| COc1cc(O)c(C(=O)/C=C/c2ccc3occc3c2)cc1C1OC(C(=O)[O-])C(O)C(O)C1O.[Na+] [Compound 43, 3-(Benzo[b]furan-5-yl)-3′-(6-carboxysodium salt-β-D-glucopyranosyl)4′-methoxy-6′-hydroxy-acrylophenone] |  | 115 to 117 °C |
| COc1cc(O)c(C(=O)/C=C/c2ccc3occc3c2)cc1C1OC(COS(=O)(=O)O)C(O)C(O)C1O [Compound 44, 3-(Benzo[b]furan-5-yl)-3′-(6-sulfonic acid-β-D-glucopyranosyl)-4′-methoxy-6′-hydroxyacrylophenone] |  | 177 to 179 °C |
| COc1cc(O)c(C(=O)CCc2ccc3occc3c2)cc1C1OC(COC(=O)CCC(=O)O)C(O)C(O)C1O (stereo not shown) [Compound 47] |  | 113 to 114 °C |
| COc1cc(O)c(C(=O)CCc2ccc3occc3c2)cc1C1OC(COC(=O)CCC(=O)[O-])C(O)C(O)C1O.[Na+] (stereo not shown) [Compound 48] |  | 262 °C |
| Cc1cc(O)c(C(=O)/C=C/c2ccc3occc3c2)c(CC2OC(CO)C(O)C(O)C2O)c1 [Compound 51, 3-(Benzo[b]furan-5-yl)-1-[6-hydroxy-4-methyl-2-{(β-D-glucopyranos-1-yl)methyl}]acrylophenone] |  | 103 to 105 °C |
| Cc1cc(O)c(C(=O)CCc2ccc3occc3c2)c(CC2OC(CO)C(O)C(O)C2O)c1 [Compound 52, 3-(Benzo[b]furan-5-yl)-1-[6-hydroxy-4-methyl-2-{(β-D-glucopyranos-1-yl)methyl}]propiophenone] |  | 85 to 87 °C |
| COC(=O)OCC1OC(Cc2cc(C)cc(O)c2C(=O)CCc2ccc3occc3c2)C(O)C(O)C1O [Compound 53, 3-Benzo [b]furan-5-yl-1-(6-hydroxy-4-methyl-2-{[6-methoxycarbonyl-β-D-glucopyranos-1-yl]methyl})propiophenone] |  | 58 to 60 °C |
| O=C(CCc1ccc(O)cc1)c1c(O)cc(O)cc1CC1OC(CO)C(O)C(O)C1O [Compound 54, 1-[2,4-Dihydroxy-6-{(β-D-glicopyranosyl)methyl}phenyl]-3-(4-hydroxyphenyl)propan-1-one] |  | 227 to 228 °C |
| COc1cc(C)cc(CC2OC(CO)C(O)C(O)C2O)c1C(=O)/C=C/c1ccc2occc2c1 (stereo not shown) [Compound 55] |  | 80 to 83 °C |
| COc1cc(C)cc(CC2OC(CO)C(O)C(O)C2O)c1C(=O)/C=C/c1ccc2occc2c1 (stereo not shown) [Compound 57] |  | 118 to 120 °C |
| COC(=O)OCC1OC(Cc2cc(O)cc(O)c2C(=O)CCc2ccc(O)cc2)C(O)C(O)C1O (stereo not shown) [Compound 58] |  | 199 to 201 °C |
